From patent US20090118286A1, “Heterobicyclic Acrylamides” (Bayer Cropscience AG, priority 2005, published 2009)
Like-named read-outs stand apart in the source and are kept apart here.

Assays:
[1] = tested on: caterpillars of the army worm (Spodoptera frugiperda); assay: Spodoptera frugiperda test, SPODFR spray treatment; assay type: in vivo; conditions: foliar, 168 h, 500 g a. i./ha, spray treatment of maize leaf discs, 7 d, read-out: % 7 d (effect in %, caterpillars killed)
Description: [table] To produce a suitable preparation of active compound, 1 part by weight of active compound is mixed with the stated amounts of solvents and emulsifier, and the concentrate is diluted with emulsifier-containing water to the desired concentration. Discs of maize leaves (Zea mays) are sprayed with a preparation of active compound of the desired concentration and, after drying, populated with caterpillars of the army worm (Spodoptera frugiperda). After the desired period of time, the effect in % is determined. 100% means that all caterpillars have been killed; 0% means that none of the caterpillars have been killed.

[2] = log P determination by HPLC (EEC Directive 79/831 Annex V.A8, gradient method); assay type: physicochemical; conditions: for chromatographic logP: HPLC, gradient method, acetonitrile/0.1% strength aqueous phosphoric acid or formic acid

| chromatographic logP ([2]; read-out: Physical data: log P) | SMILES | pest or weed control at 500 g/ha [1] | other results |
| --- | --- | --- | --- |
| 3.51 | O=C(/C=C/c1c(-c2ccc(F)cc2Cl)nc2sc(C(F)(F)F)nn12)NCC(F)(F)F [Example 0603] | 100% |  |
| 3.97 | O=C(/C=C/c1c(-c2ccc(F)cc2Cl)nc2sc(C(F)(F)F)nn12)NCC(F)(F)C(F)(F)F [Example 0610] | 100% |  |
| 4.17 | O=C(/C=C/c1c(-c2ccc(F)cc2Cl)nc2sc(C(F)(F)F)nn12)Nc1ccc(F)cc1 [Example 0624] | 100% |  |
| 3.51 | O=C(/C=C/c1c(-c2ccc(F)cc2Cl)nc2sc(C(F)(F)F)nn12)NCCC(F)(F)F [Example 0604] | 100% |  |
| 3.77 | C[C@@H](NC(=O)/C=C/c1c(-c2ccc(F)cc2Cl)nc2sc(C(F)(F)F)nn12)C(F)(F)F [Example 0608] | 100% |  |

More lines, now with the values behind:

| SMILES | chromatographic logP ([2]; read-out: Physical data: log P) | pest or weed control at 500 g/ha [1] | other results |
| --- | --- | --- | --- |
| CC(NC(=O)/C=C/c1c(-c2cccc(Cl)c2)nc2sc(C(F)(F)F)nn12)C(F)(F)F (stereo not shown) [Example 0094] |  | 100% |  |
| CC(C)NC(=O)/C=C/c1c(-c2ccccc2F)nc2sc(C(F)(F)F)nn12 [Example 0442] | 2.96 | 100% |  |
| CCC(CC)NC(=O)/C=C/c1c(-c2ccccc2C)nc2sc(C(F)(F)F)nn12 [Example 0286] | 3.85 | 100% |  |
| CC(NC(=O)/C=C/c1c(-c2ccccc2Cl)nc2sc(C(F)(F)Cl)nn12)C(F)(F)F (stereo not shown) [Example 0741] |  | 100% | chromatographic logP ([2]; read-out: Physical data: logP): 3.8 |
| CCC(CC)NC(=O)/C=C/c1c(-c2ccccc2F)nc2sc(C(F)(F)F)nn12 [Example 0499] | 3.59 | 83% |  |
| CC(C)NC(=O)/C=C/c1c(-c2ccc(Cl)cc2Cl)nc2sc(C(F)(F)F)nn12 [Example 0513] | 3.69 | 100% |  |
| CC(NC(=O)/C=C/c1c(-c2ccc(Cl)cc2Cl)nc2sc(C(F)(F)F)nn12)C(F)(F)F (stereo not shown) [Example 0527] | 4.23 | 100% |  |
| CCC(CC)NC(=O)/C=C/c1c(-c2ccccc2Cl)nc2sc(C(F)(F)F)nn12 [Example 0215] |  | 100% | chromatographic logP ([2]; read-out: Physical data (logP)): 3.72 |
| CCN(CC)C(=O)/C=C/c1c(-c2ccc(Cl)cc2Cl)nc2sc(C(F)(F)F)nn12 [Example 0573] | 4.18 | 100% |  |
| CC(NC(=O)/C=C/c1c(-c2ccc(F)cc2)nc2sc(C(F)(F)F)nn12)C(F)(F)F (stereo not shown) [Example 0317] | 3.72 | 100% |  |
| Cc1ccccc1-c1nc2sc(C(F)(F)F)nn2c1/C=C/C(=O)NC(C)C(F)(F)F (stereo not shown) [Example 0246] | 3.76 | 100% |  |
| Cc1ccccc1-c1nc2sc(C(F)(F)F)nn2c1/C=C/C(=O)NC(C)C(C)C (stereo not shown) [Example 0245] | 3.9 | 83% |  |
| O=C(/C=C/c1c(-c2ccc(Cl)cc2Cl)nc2sc(C(F)(F)F)nn12)Nc1ccc(F)cc1 [Example 0553] | 4.63 | 100% |  |
| CCC(C)NC(=O)/C=C/c1c(-c2ccccc2Cl)nc2sc(C(F)(F)Cl)nn12 (stereo not shown) [Example 0733] |  | 100% | chromatographic logP ([2]; read-out: Physical data: logP): 3.67 |
| CC(C)(C)NC(=O)/C=C/c1c(-c2ccc(F)cc2Cl)nc2sc(C(F)(F)F)nn12 [Example 0583] | 3.89 | 100% |  |
| CC(C)C(C)NC(=O)/C=C/c1c(-c2ccc(F)cc2Cl)nc2sc(C(F)(F)F)nn12 (stereo not shown) [Example 0597] | 3.9 | 100% |  |
| CCC(C)NC(=O)/C=C/c1c(-c2ccccc2F)nc2sc(C(F)(F)F)nn12 (stereo not shown) [Example 0451] | 3.33 | 100% |  |
| CC(C)NC(=O)/C=C/c1c(-c2ccc(F)cc2)nc2sc(C(F)(F)F)nn12 [Example 0300] | 3.24 | 100% |  |
| CC(NC(=O)/C=C/c1c(-c2ccccc2F)nc2sc(C(F)(F)F)nn12)C(F)(F)F (stereo not shown) [Example 0459] | 3.55 | 100% |  |
| O=C(/C=C/c1c(-c2ccccc2Cl)nc2sc(C(F)(F)F)nn12)Nc1ccc(F)cc1 [Example 0201] |  | 100% | chromatographic logP ([2]; read-out: Physical data (logP)): 4.08 |
| CC(C)NC(=O)/C=C/c1c(-c2ccc(F)cc2Cl)nc2sc(C(F)(F)F)nn12 [Example 0581] | 3.32 | 100% |  |
| O=C(/C=C/c1c(-c2ccccc2Cl)nc2sc(C(F)(F)F)nn12)NC1CCC1 [Example 0153] |  | 100% | chromatographic logP ([2]; read-out: Physical data (logP)): 3.33 |
| CCC(CC)NC(=O)/C=C/c1c(-c2ccccc2Cl)nc2sc(C(F)(F)Cl)nn12 [Example 0781] |  | 100% | chromatographic logP ([2]; read-out: Physical data: logP): 3.95 |
| O=C(/C=C/c1c(-c2ccccc2Cl)nc2sc(C(F)(F)F)nn12)N1CCOCC1 [Example 0223] | 2.79 | 100% |  |
| CC(NC(=O)/C=C/c1c(-c2ccc(Cl)cc2)nc2sc(C(F)(F)F)nn12)C(F)(F)F (stereo not shown) [Example 0024] |  | 100% | chromatographic logP ([2]; read-out: Physical data (logP)): 4.13 |
| CCCC(C)NC(=O)/C=C/c1c(-c2ccccc2C)nc2sc(C(F)(F)F)nn12 (stereo not shown) [Example 0239] | 3.94 | 100% |  |

| SMILES | chromatographic logP ([2]; read-out: Physical data: log P) | pest or weed control at 500 g/ha [1] | other results |
| --- | --- | --- | --- |
| COCC(C)NC(=O)/C=C/c1c(-c2ccc(F)cc2Cl)nc2sc(C(F)(F)F)nn12 (stereo not shown) [Example 0592] | 3.11 | 100% |  |
| Cc1ccccc1-c1nc2sc(C(F)(F)F)nn2c1/C=C/C(=O)NC(C)C [Example 0229] | 3.24 | 100% |  |
| O=C(/C=C/c1c(-c2ccccc2Cl)nc2sc(C(F)(F)Cl)nn12)Nc1ccc(F)cc1 [Example 0767] |  | 100% | chromatographic logP ([2]; read-out: Physical data: logP): 4.19 |
| CCC(C)NC(=O)/C=C/c1c(-c2ccccc2Cl)nc2sc(C(F)(F)F)nn12 (stereo not shown) [Example 0167] |  | 100% | chromatographic logP ([2]; read-out: Physical data (logP)): 3.46 |
| CC(NC(=O)/C=C/c1c(-c2ccccc2Cl)nc2sc(C(F)(F)F)nn12)C(F)(F)F (stereo not shown) [Example 0175] |  | 100% | chromatographic logP ([2]; read-out: Physical data (logP)): 3.63 |
| Cc1ccccc1-c1nc2sc(C(F)(F)F)nn2c1/C=C/C(=O)NC(C)c1ccccn1 (stereo not shown) [Example 0274] | 2.45 | 100% |  |
| O=C(/C=C/c1c(-c2ccc(F)cc2Cl)nc2sc(C(F)(F)F)nn12)NCc1ccc(F)cc1 [Example 0614] |  | 100% |  |
| CC(NC(=O)/C=C/c1c(-c2cc(Cl)ccc2Cl)nc2sc(C(F)(F)F)nn12)C(F)(F)F (stereo not shown) [Example 0792] |  | 100% | chromatographic logP ([2]; read-out: Physical data: logP): 4.13 |
| CCCC(C)NC(=O)/C=C/c1c(-c2ccccc2F)nc2sc(C(F)(F)F)nn12 (stereo not shown) [Example 0452] | 3.68 | 100% |  |
| CC(C)C(C)NC(=O)/C=C/c1c(-c2ccccc2Cl)nc2sc(C(F)(F)Cl)nn12 (stereo not shown) [Example 0740] |  | 100% | chromatographic logP ([2]; read-out: Physical data: logP): 3.97 |
| CCC(C)NC(=O)/C=C/c1c(-c2ccccc2C)nc2sc(C(F)(F)F)nn12 (stereo not shown) [Example 0238] | 3.59 | 100% |  |
| CC(C)(C)NC(=O)/C=C/c1c(-c2ccc(Cl)cc2Cl)nc2sc(C(F)(F)F)nn12 [Example 0515] | 4.32 | 100% |  |
| CC(C)C(C)NC(=O)/C=C/c1c(-c2ccccc2Cl)nc2sc(C(F)(F)F)nn12 (stereo not shown) [Example 0174] |  | 83% | chromatographic logP ([2]; read-out: Physical data (logP)): 3.76 |
| CCC(CC)NC(=O)/C=C/c1c(-c2ccc(F)cc2Cl)nc2sc(C(F)(F)F)nn12 [Example 0638] |  | 100% | chromatographic logP ([2]; read-out: Physical data: logP): 3.89 |
| CCCC(C)NC(=O)/C=C/c1c(-c2ccc(F)cc2Cl)nc2sc(C(F)(F)F)nn12 (stereo not shown) [Example 0591] | 4.02 | 100% |  |
| COCc1nn2c(/C=C/C(=O)Nc3ccc(OC(F)(F)F)cc3)c(-c3ccccc3Cl)nc2s1 [Example 0834] |  |  | Physical data: logP [2]: 4 |
| O=C(/C=C/c1c(-c2ccccc2Cl)nc2sc(-c3ccc(C(F)(F)F)cc3)nn12)NC1CC1 [Example 0851] |  |  | Physical data: logP [2]: 3.75 |
| CN(C)C(=O)/C=C/c1c(-c2ccc(Cl)cc2)nc2sc(C(F)(F)F)nn12 [Example 0065] |  |  | Physical data (logP) [2]: 3.42 |
| O=C(O)/C=C/c1c(-c2cccc(C(F)(F)F)c2)nc2sc(C(F)(F)F)nn12 [VA-7] |  |  | Physical data (logP) [2]: 3.33 |
| O=C(/C=C/c1c(-c2ccccc2Cl)nc2sc(-c3ccc(C(F)(F)F)cc3)nn12)Nc1ccc(C(F)(F)F)cc1 [Example 0857] |  |  | Physical data: logP [2]: 5.61 |
| CCC(NC(=O)C=Cc1c(-c2ccc(F)cc2)nc2sc(C(F)(F)F)nn12)C1CCCCC1 (stereo not shown) [Example 0338] |  |  | Physical data: log P [2]: 4.92 |
| COCc1nn2c(/C=C/C(=O)NC3CCC(C(F)(F)F)CC3)c(-c3ccccc3Cl)nc2s1 (stereo not shown) [Example 0821] |  |  | Physical data: logP [2]: 3.4 |
| CCCC(C)NC(=O)/C=C/c1c(-c2ccccc2Cl)nc2sc(C(F)(F)F)nn12 (stereo not shown) [Example 0168] |  | 100% | chromatographic logP ([2]; read-out: Physical data (logP)): 3.85 |
| Cc1csc2nc(-c3ccccc3Cl)c(/C=C/C(=O)NC(C)C(F)(F)F)n12 (stereo not shown) [Example 0883] |  |  | Physical data: logP [2]: 2.59 |
| CC(C)C(NC(=O)/C=C/c1c(-c2ccc(F)cc2Cl)nc2sc(C(F)(F)F)nn12)C(F)(F)F (stereo not shown) [Example 0599] | 4.37 | 100% |  |
| COCc1nn2c(/C=C/C(=O)NCC(F)(F)F)c(-c3ccccc3Cl)nc2s1 [Example 0822] |  |  | Physical data: logP [2]: 2.72 |
